Measured values taken from patent US10906924B2, “Modulators of indoleamine 2,3-dioxygenase” (GLAXOSMITHKLINE INTELLECTUAL PROPERTY DEVELOPMENT LIMITED, priority 2017, dated 2021).

Molecular target: indoleamine 2,3-dioxygenase (IDO1) (Homo sapiens, UniProt P14902)
Assay: PBMC IDO1 assay (kynurenine by mass spectrometry)
Type: cell-based
Conditions: human PBMC stimulated with IFN-γ and LPS, 2 days incubation, kynurenine detected by mass spectrometry; read-out: IDO1 PBMC pIC50 (converted)

indoleamine 2,3-dioxygenase (IDO1), sequence (P14902 whole entry): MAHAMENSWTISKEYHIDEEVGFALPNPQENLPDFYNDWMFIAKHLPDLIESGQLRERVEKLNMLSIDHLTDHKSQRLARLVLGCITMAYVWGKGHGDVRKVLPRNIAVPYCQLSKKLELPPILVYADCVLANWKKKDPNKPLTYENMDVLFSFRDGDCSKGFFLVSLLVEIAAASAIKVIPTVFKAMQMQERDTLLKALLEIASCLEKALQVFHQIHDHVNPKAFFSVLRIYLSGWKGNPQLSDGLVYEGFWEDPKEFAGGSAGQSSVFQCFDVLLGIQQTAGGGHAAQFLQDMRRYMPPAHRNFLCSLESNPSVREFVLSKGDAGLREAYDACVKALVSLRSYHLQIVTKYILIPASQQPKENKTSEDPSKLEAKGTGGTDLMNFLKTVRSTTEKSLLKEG

| Structure (SMILES) | IC50 [µM] |
| --- | --- |
| CCOC(=O)N1CCC2(CC1)C[C@H](NC(=O)c1cccc3c(CO)n[nH]c13)c1cc(Br)ccc1O2 [Example 59, ethyl (S)-6-bromo-4-(3-(hydroxymethyl)-1H-indazole-7-carboxamido) spiro[chromane-2,4′-piperidine]-1′-carboxylate] | 0.000794 |
| CCOC(=O)N1CCC2(CC1)CC(NC(=O)c1cccc3cc[nH]c13)c1ccc(Br)cc1O2 (centres unmarked) [Example 24, ethyl 7-bromo-4-(1H-indole-7-carboxamido)spiro[chroman-2,4′-piperidine]-1′-carboxylate] | 0.1 |
| CCOC(=O)N1CCC2(CC1)C[C@H](NC(=O)c1cccc(O)n1)c1cc(Br)ccc1O2 [Example 25, (S)-ethyl 6-bromo-4-(6-hydroxypicolinamido)spiro[chroman-2,4′-piperidine]-1′-carboxylate] | 0.1 |
| CCOC(=O)N1CCC2(CC1)C[C@H](NC(=O)c1cccc3c(COC(=O)CCC(=O)O)[nH]nc13)c1cc(Br)ccc1O2 [Example 60, (S)-4-((7-((6-bromo-1′-(ethoxycarbonyl)spiro[chromane-2,4′-piperidin]-4-yl)carbamoyl)-1H-indazol-3-yl)methoxy)-4-oxobutanoic acid] | 0.00126 |
| CCOC(=O)N1CCC2(CC1)C[C@H](NC(=O)c1ccccc1N)c1cc(Br)ccc1O2 [Example 10, (S)-ethyl 4-(2-aminobenzamido)-6-bromospiro[chroman-2,4′-piperidine]-1′-carboxylate] | 0.0126 |

Second part, the molecule after the results:

| IC50 [µM] | Structure (SMILES) |
| --- | --- |
| 0.501 | CCOC(=O)N1CCC2(CC1)CC(NC(=O)c1cccnc1)c1ccccc1O2 (centres unmarked) [Example 41, ethyl 4-(nicotinamido)spiro[chroman-2,4′-piperidine]-1′-carboxylate] |
| 0.398 | CCOC(=O)N1CCC2(CC1)CC(NC(=O)c1cccc3nc[nH]c13)c1ccccc1O2 (centres unmarked) [Example 39, ethyl 4-(1H-benzo[d]imidazole-7-carboxamido)spiro[chroman-2,4′-piperidine]-1′-carboxylate] |
| 0.251 | CCOC(=O)N1CCC2(CC1)CC(NC(=O)c1ccccn1)c1ccccc1O2 (centres unmarked) [Example 34, ethyl 4-(picolinamido)spiro[chroman-2,4′-piperidine]-1′-carboxylate] |
